Assay results as given in patent US5082772A, “Process for preparing deacetylcephalosporin C” (priority 1988, dated 1992).
“And” between values parts separate entries of the source, which are not always exact repeats. Equal entries are not always repeated. Where two headings read alike, the source gives them in different places. Values belong to the compound of their own block, whether it stands above or below them.

Key:
Format in all cases: biochemical
[1] = target: T1, DAOC synthase (Streptomyces clavuligerus, UniProt P18548); experiment: DAOC synthase activity assay: effect of metal chelators, sulfhydryl reagents and other inhibitors
Protocol: ^1 Enzymatic reactions were conducted in the presence of […]
FeSO4 and 0.1 mM DTT. The enzyme was incubated with the indicated
inhibitor for 1 min prior to the initiation of the reaction with
(§1) The enzymatic reaction was initiated by addition of penicillin N and was conducted for 15 min at 36° C. The synthase activity was determined by monitoring DAOC formation at 260 nm with HPLC as described by Dotzlaf, J. E., and Yeh, W. K (1987), J. Bacteriol 169, 1611-1618.

[2] = target: T1, DAOC synthase; experiment: Cofactor and metal ion requirement and stimulation of DAOC synthase activity
Protocol: as §1

[3] = target: T2, purified synthase (Streptomyces clavuligerus, UniProt P18548); experiment: Hydroxylase activity (conversion to DAC)
[4] = target: T1, DAOC synthase; experiment: Substrate specificity of DAOC synthase (HPLC detection); conditions: optimum conditions for converting penicillin N to DAOC; HPLC detectable
[5] = target: T3, native synthase (Streptomyces clavuligerus, UniProt P18548); experiment: Kinetics of native synthase, partially purified (Mono Q eluate); conditions: native partially purified enzyme; Tris-HCl buffer, 36° C.
T3 construct: native synthase, evaluated with the partially purified enzyme; endogenous in cells; host or cells: Streptomyces clavuligerus cells, crude extract, three-step purification (Mono Q eluate)

[6] = target: T4, recombinantly produced DAOC synthase (Streptomyces clavuligerus, UniProt P18548); experiment: Kinetics of recombinant enzyme (Lineweaver-Burk); conditions: pH 7.0, 50 mM HEPES buffer, 36° C.
T4 construct: made in house; host or cells: Escherichia coli K12 JM109 (plasmid pOW382)
Protocol: The kinetics of the native enzyme and recombinant enzyme were determined under the optimal reaction conditions for the enzyme, i.e., at pH 7.0 in 50 mM HEPES buffer at 36° C.

[7] = target: T2, purified synthase; experiment: Stoichiometric analysis of conversion of penicillin N to DAOC; conditions: over 60 min of the reaction
Protocol: In the conversion of penicillin N to DAOC by the purified synthase provided herein, the molar ratio for DAOC formation/penicillin N disappearance over 60 min of the reaction remained in the range of 0.90-0.98 as shown in FIG. 5. The conversion of penicillin N to DAOC was 94% complete under the reaction conditions.

[8] = metal ions: order Zn2+ > Co2+ > Ni2+
[9] = additive 0.1 mM, 0.06 mN FeSO4, 0.1 mM DTT, 1 min incubation with inhibitor before penicillin N
[10] = additive 1.0 mM, 0.06 mN FeSO4, 0.1 mM DTT, 1 min incubation with inhibitor before penicillin N

T2 sequence (P18548 whole entry): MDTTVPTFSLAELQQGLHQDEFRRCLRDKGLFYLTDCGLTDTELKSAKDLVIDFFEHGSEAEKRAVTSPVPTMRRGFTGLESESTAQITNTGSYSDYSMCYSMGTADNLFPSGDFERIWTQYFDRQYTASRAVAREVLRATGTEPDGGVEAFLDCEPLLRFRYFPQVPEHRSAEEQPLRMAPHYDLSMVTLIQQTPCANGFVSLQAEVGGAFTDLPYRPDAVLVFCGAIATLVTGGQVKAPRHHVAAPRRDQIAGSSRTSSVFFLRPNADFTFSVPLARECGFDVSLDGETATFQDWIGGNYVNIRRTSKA
T1 sequence (P18548 whole entry): as above
T4 sequence (P18548 whole entry): as above
T3 sequence (P18548 whole entry): as above

restoration of synthase activity after DTNB inactivation ([1]; 2 mM DTT added, 30 min): fully restored | stimulation of DAOC synthase activity [2]: stimulated
SMILES: O[C@H](CS)[C@H](O)CS (racemic) [DTT, dithiothreitol]

SMILES: C=C1CS[C@@H]2[C@H](NC(=O)CCCC(N)C(=O)O)C(=O)N2C1C(=O)O (stereo partly drawn) [3-exomethylenecephalosporin C, 7β-(α-aminoadipamido)-3-exomethylenecepham-4-carboxylic acid]
inhibition of DAOC synthase activity (in words) [1, 8]: strong inhibitor | conversion to DAC by the purified synthase [3]: possesses the ability to convert 3-exomethylenecephalosporin C to DAC

SMILES: CC1(C)S[C@@H]2[C@H](N)C(=O)N2[C@H]1C(=O)O [6-aminopenicillanic acid]
synthase activity with the compound as substrate [4]: No synthase activity was observed

SMILES: Nc1ncnc2c1ncn2[C@@H]1O[C@H](COP(=O)(O)OP(=O)(O)OP(=O)(O)O)[C@@H](O)[C@H]1O [ATP, adenosine triphosphate]
stimulation of DAOC synthase activity [2]: No detectable stimulation

SMILES: CC1=C(C(=O)O)N2C(=O)[C@@H](NC(=O)CCC[C@@H](N)C(=O)O)[C@H]2SC1 [DAOC, deacetoxycephalosporin C]
conversion to DAC by the purified synthase [3]: lacks the hydroxylase activity for converting DAOC to DAC

SMILES: O=C(O)c1cc(SSc2ccc([N+](=O)[O-])c(C(=O)O)c2)ccc1[N+](=O)[O-] [DTNB, 5,5'-dithiobis-2-nitrobenzoic acid]
inactivation of the enzyme ([1]; 0.2 mM DTNB, 0.5 min, 4° C.): complete inactivation | Relative Activity (%) [1, 9]: 70% | Relative Activity (%) [1, 10]: 0% | inhibition of DAOC synthase activity (in words) [1, 8]: highly susceptible to inhibition

SMILES: O=C(O)CN(CCN(CC(=O)O)CC(=O)O)CC(=O)O [EDTA, ethylenediamine tetraacetic acid]
inhibition of DAOC synthase activity (in words) [1]: highly sensitive to inhibition

replacement of ferrous ion for expression of enzyme activity ([2]; in the presence of DTT and ascorbate, enzyme slightly less active): can substitute for ferrous ion
SMILES: [Fe+3] [Ferric ion]

SMILES: O=C(O)CI [Iodoacetic acid, iodoacetic acid]
Relative Activity (%) [1]: 100% and 65% | inhibition of DAOC synthase activity (in words) [1]: slightly inhibited

SMILES: CCN1C(=O)C=CC1=O [NEM, N-ethylmaleimide]
Relative Activity (%) [1, 9]: 55% | Relative Activity (%) [1, 10]: 0% | inhibition of DAOC synthase activity (in words) [1, 8]: highly susceptible to inhibition

synthase activity with the compound as substrate [4]: No synthase activity was observed
SMILES: CC1(C)S[C@@H]2[C@H](NC(=O)[C@H](N)c3ccccc3)C(=O)N2[C@H]1C(=O)O [ampicillin]

SMILES: [Ca] [calcium]
replacement of ferrous ion for expression of enzyme activity [2]: could not be replaced

inhibition of DAOC synthase activity (in words) [1, 8]: inhibited | replacement of ferrous ion for expression of enzyme activity [2]: could not be replaced
SMILES: [Co+2] [cobaltous]

replacement of ferrous ion for expression of enzyme activity [2]: could not be replaced
SMILES: [Cu+] [cuprous]

SMILES: [Fe+2] [ferrous ion]
requirement for expression of catalytic activity [2]: requires | Ka [5]: 4 µM | Ka [6]: 8 µM

SMILES: CC1(C)S[C@@H]2[C@H](NC(=O)CCC[C@H](N)C(=O)O)C(=O)N2[C@H]1C(=O)O [isopenicillin N]
synthase activity with the compound as substrate [4]: No synthase activity was observed

replacement of ferrous ion for expression of enzyme activity [2]: could not be replaced
SMILES: [Mg] [magnesium]

replacement of ferrous ion for expression of enzyme activity [2]: could not be replaced
SMILES: [Mn+2] [manganous]

SMILES: [Ni+2] [nickel]
inhibition of DAOC synthase activity (in words) [1, 8]: inhibited | replacement of ferrous ion for expression of enzyme activity [2]: could not be replaced

Relative Activity (%) ([1]; additive 0.02 mM, 0.06 mN FeSO4, 0.1 mM DTT, 1 min incubation with inhibitor before penicillin N): 63% | Relative Activity (%) ([1]; additive 0.2 mM, 0.06 mN FeSO4, 0.1 mM DTT, 1 min incubation with inhibitor before penicillin N): 0% | inhibition of DAOC synthase activity (in words) [1, 8]: highly sensitive to inhibition
SMILES: c1cnc2c(c1)ccc1cccnc12 [o-Phenanthroline, 1,10-phenanthroline]

SMILES: O=O [oxygen]
requirement for expression of catalytic activity [2]: requires

SMILES: O=C(O)c1cc[c]([Hg+])cc1.[OH-] [p-HMB, p-hydroxymercuribenzoate]
Relative Activity (%) [1, 9]: 0% | Relative Activity (%) [1, 10]: 0% | inhibition of DAOC synthase activity (in words) [1, 8]: highly susceptible to inhibition

SMILES: CC1(C)S[C@@H]2[C@H](NC(=O)Cc3ccccc3)C(=O)N2[C@H]1C(=O)O [penicillin G]
synthase activity with the compound as substrate [4]: No synthase activity was observed

SMILES: CC1(C)S[C@@H]2[C@H](NC(=O)CCC[C@@H](N)C(=O)O)C(=O)N2[C@H]1C(=O)O [penicillin N]
molar ratio for DAOC formation/penicillin N disappearance [7]: 0.90-0.98

SMILES: CC1(C)S[C@@H]2[C@H](NC(=O)COc3ccccc3)C(=O)N2[C@H]1C(=O)O [penicillin V]
synthase activity with the compound as substrate [4]: No synthase activity was observed

replacement of ferrous ion for expression of enzyme activity [2]: could not be replaced
SMILES: [K+] [potassium]

replacement of ferrous ion for expression of enzyme activity [2]: could not be replaced
SMILES: [Na+] [sodium]

inhibition of DAOC synthase activity (in words) [1, 8]: inhibited | replacement of ferrous ion for expression of enzyme activity [2]: could not be replaced
SMILES: [Zn+2] [zinc]
